The values below come from patent US20220389007A1, “INHIBITORS OF HUMAN IMMUNODEFICIENCY VIRUS REPLICATION” (VIIV HEALTHCARE UK (No. 5) LIMITED, priority 2019, published 2022).

Data set [1] is described as follows: Compound cytotoxicity, XTT-based colorimetric assay. In kind it is cell-based. Conditions: human; uninfected MT2 cells, day 4, XTT assay. The method, boiled down: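 Run under the antiviral-assay protocol but without virus. Viability was read on day 4 and CC50 values were derived from the readout.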
The subject of data set [2] is recombinant NL4-3 virus. Put plainly: HIV cell culture assay (antiviral activity, luciferase readout). In kind it is cell-based. The note with it: Human immunodeficiency virus 1, NL43, MT2, MT-2 cells infected for 4-5 days with recombinant NL4-3 virus carrying Renilla luciferase. The method, boiled down:
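MT-2 cells infected for 4-5 days with NL4-3 reference virus carrying Renilla luciferase in place of part of nef, in presence of serial compound dilutions. Luciferase read with live-cell substrate; EC50 from median effect equation fit.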

Some results are limits rather than exact numbers.

Regarding `Cn1nc(NS(C)(=O)=O)c2c(Cl)ccc(-n3c([C@H](Cc4cc(F)cc(F)c4)NC(=O)Cn4nc(C(F)F)c5c4C(F)(F)[C@@H]4C[C@H]54)nc4nc(-c5cc(C(F)(F)F)ncn5)ccc4c3=O)c21` (atropisomer, axis not shown; (P)) [Example 15, N-((S)-1-((3P)-3-(4-chloro-1-methyl-3-(methylsulfonamido)-1H-indazol-7-yl)-4-oxo-7-(6-(trifluoromethyl)pyrimidin-4-yl)-3,4-dihydropyrido[2,3-d]pyrimidin-2-yl)-2-(3,5-difluorophenyl)ethyl)-2-((3bS,4aR)-3-(difluoromethyl)-5,5-difluoro-3b,4,4a,5-tetrahydro-1H-cyclopropa[3,4]cyclopenta[1,2-c]pyrazol-1-yl)acetamide], in data set [1], the half-maximal cytotoxic concentration (CC50) at 4 day is greater than 100 nM. Moreover, in data set [2], the EC50 worked out at 0.025 nM.

In the case of `Cn1nc(NS(C)(=O)=O)c2c(Cl)ccc(-n3c([C@H](Cc4cc(F)cc(F)c4)NC(=O)Cn4nc(C(F)F)c5c4C(F)(F)[C@@H]4C[C@H]54)nc4nc(-c5cc(C(F)(F)F)[nH]n5)ccc4c3=O)c21` (atropisomer, axis not shown; (P)) [Example 90, N-((S)-1-((3P)-3-(4-chloro-1-methyl-3-(methylsulfonamido)-1H-indazol-7-yl)-4-oxo-7-(5-(trifluoromethyl)-1H-pyrazol-3-yl)-3,4-dihydropyrido[2,3-d]pyrimidin-2-yl)-2-(3,5-difluorophenyl)ethyl)-2-((3bS,4aR)-3-(difluoromethyl)-5,5-difluoro-3b,4,4a,5-tetrahydro-1H-cyclopropa[3,4]cyclopenta[1,2-c]pyrazol-1-yl)acetamide], in data set [1], the cytotoxic concentration (CC50) at 4 day was greater than 100 nM. Besides, in data set [2], the concentration giving a half-maximal response (EC50) amounted to 0.098 nM.

Turning to `Cn1nc(NS(C)(=O)=O)c2c(Cl)ccc(-n3c([C@H](Cc4cc(F)cc(F)c4)NC(=O)Cn4nc(C(F)F)c5c4C(F)(F)[C@@H]4C[C@H]54)nc4nc(-c5ccn(CC(F)F)n5)ccc4c3=O)c21` (atropisomer, axis not shown; (P)) [Example 79, N-((S)-1-((3P)-3-(4-chloro-1-methyl-3-(methylsulfonamido)-1H-indazol-7-yl)-7-(1-(2,2-difluoroethyl)-1H-pyrazol-3-yl)-4-oxo-3,4-dihydropyrido[2,3-d]pyrimidin-2-yl)-2-(3,5-difluorophenyl)ethyl)-2-((3bS,4aR)-3-(difluoromethyl)-5,5-difluoro-3b,4,4a,5-tetrahydro-1H-cyclopropa[3,4]cyclopenta[1,2-c]pyrazol-1-yl)acetamide], in data set [1], the CC50 at 4 day is greater than 100 nM. Further, the half-maximal effective concentration (EC50) in data set [2] was 0.047 nM.

As for `Cn1nc(NS(C)(=O)=O)c2c(Cl)ccc(-n3c([C@H](Cc4cc(F)cc(F)c4)NC(=O)Cn4nc(C(F)F)c5c4C(F)(F)[C@@H]4C[C@H]54)nc4nc(-c5ccc6scnc6c5)ccc4c3=O)c21` (atropisomer, axis not shown; (P)) [Example 72, N-((S)-1-(7-(benzo[d]thiazol-5-yl)-(3P)-3-(4-chloro-1-methyl-3-(methylsulfonamido)-1H-indazol-7-yl)-4-oxo-3,4-dihydropyrido[2,3-d]pyrimidin-2-yl)-2-(3,5-difluorophenyl)ethyl)-2-((3bS,4aR)-3-(difluoromethyl)-5,5-difluoro-3b,4,4a,5-tetrahydro-1H-cyclopropa[3,4]cyclopenta[1,2-c]pyrazol-1-yl)acetamide], the 50% cytotoxic concentration (CC50) at 4 day in data set [1] was greater than 100 nM. Further, the EC50 in data set [2] worked out at 0.11 nM.

In turn, `Cn1nc(NS(C)(=O)=O)c2c(Cl)ccc(-n3c([C@H](Cc4cc(F)cc(F)c4)NC(=O)Cn4nc(C(F)F)c5c4C(F)(F)[C@@H]4C[C@H]54)nc4nc(-c5ccc(F)c(C(F)(F)F)c5)ccc4c3=O)c21` (atropisomer, axis not shown; (P)) [Example 19, N-((S)-1-((3P)-3-(4-chloro-1-methyl-3-(methylsulfonamido)-1H-indazol-7-yl)-7-(4-fluoro-3-(trifluoromethyl)phenyl)-4-oxo-3,4-dihydropyrido[2,3-d]pyrimidin-2-yl)-2-(3,5-difluorophenyl)ethyl)-2-((3bS,4aR)-3-(difluoromethyl)-5,5-difluoro-3b,4,4a,5-tetrahydro-1H-cyclopropa[3,4]cyclopenta[1,2-c]pyrazol-1-yl)acetamide] showed a CC50 at 4 day in data set [1] greater than 100 nM. The EC50 in data set [2] was 0.23 nM.

`Cn1nc(NS(C)(=O)=O)c2c(Cl)ccc(-n3c([C@H](Cc4cc(F)cc(F)c4)NC(=O)Cn4nc(C(F)F)c5c4C(F)(F)[C@@H]4C[C@H]54)nc4nc(-c5ccc(OC(F)F)cc5)ccc4c3=O)c21` (atropisomer, axis not shown; (P)) [Example 27, N-((S)-1-((3P)-3-(4-chloro-1-methyl-3-(methylsulfonamido)-1H-indazol-7-yl)-7-(4-(difluoromethoxy)phenyl)-4-oxo-3,4-dihydropyrido[2,3-d]pyrimidin-2-yl)-2-(3,5-difluorophenyl)ethyl)-2-((3bS,4aR)-3-(difluoromethyl)-5,5-difluoro-3b,4,4a,5-tetrahydro-1H-cyclopropa[3,4]cyclopenta[1,2-c]pyrazol-1-yl)acetamide] showed a half-maximal cytotoxic concentration (CC50) at 4 day in data set [1] greater than 100 nM. Besides, the concentration for a half-maximal effect (EC50) in data set [2] stood at 0.34 nM.

With `Cn1nc(NS(C)(=O)=O)c2c(Cl)ccc(-n3c([C@H](Cc4cc(F)cc(F)c4)NC(=O)Cn4nc(C(F)F)c5c4C(F)(F)[C@@H]4C[C@H]54)nc4nc(-c5cnn(C6CC6)c5)ccc4c3=O)c21` (atropisomer, axis not shown; (P)) [Example 74, N-((S)-1-((3P)-3-(4-chloro-1-methyl-3-(methylsulfonamido)-1H-indazol-7-yl)-7-(1-cyclopropyl-1H-pyrazol-4-yl)-4-oxo-3,4-dihydropyrido[2,3-d]pyrimidin-2-yl)-2-(3,5-difluorophenyl)ethyl)-2-((3bS,4aR)-3-(difluoromethyl)-5,5-difluoro-3b,4,4a,5-tetrahydro-1H-cyclopropa[3,4]cyclopenta[1,2-c]pyrazol-1-yl)acetamide], in data set [1], the 50% cytotoxic concentration (CC50) at 4 day was greater than 100 nM. For the same compound, in data set [2], the EC50 came out at 0.054 nM.

For the compound `Cc1nc2ccc(-c3ccc4c(=O)n(-c5ccc(Cl)c6c(NS(C)(=O)=O)nn(C)c56)c([C@H](Cc5cc(F)cc(F)c5)NC(=O)Cn5nc(C(F)F)c6c5C(F)(F)[C@@H]5C[C@H]65)nc4n3)cc2s1` (atropisomer, axis not shown; (P)) [Example 67, N-((S)-1-((3P)-3-(4-chloro-1-methyl-3-(methylsulfonamido)-1H-indazol-7-yl)-7-(2-methylbenzo[d]thiazol-6-yl)-4-oxo-3,4-dihydropyrido[2,3-d]pyrimidin-2-yl)-2-(3,5-difluorophenyl)ethyl)-2-((3bS,4aR)-3-(difluoromethyl)-5,5-difluoro-3b,4,4a,5-tetrahydro-1H-cyclopropa[3,4]cyclopenta[1,2-c]pyrazol-1-yl)acetamide], the CC50 at 4 day in data set [1] is greater than 100 nM. For the same compound, in data set [2], the EC50 was determined as 0.55 nM.
